# Values of other authors as cited in patent publication US20110052580A1, “USE OF PICOPLATIN AND BEVACIZUMAB TO TREAT COLORECTAL CANCER” (Poniard Pharmaceuticals, Inc., priority 2008, published 2011).
# Assays:
# [1] = tested on: human vascular endothelial growth factor (VEGF)
# [2] = tested on: xenotransplant models of colon cancer; details: mouse, in vivo
# [3] = tested on: metastatic colorectal cancer (MCRC); details: single agent therapy
# Sequence of human vascular endothelial growth factor (VEGF) (P15692 207-311 limits assumed): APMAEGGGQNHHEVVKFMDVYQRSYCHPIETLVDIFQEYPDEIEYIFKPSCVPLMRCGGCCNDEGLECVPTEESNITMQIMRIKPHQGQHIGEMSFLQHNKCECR
Compound,Binding to and inhibition of VEGF [1],Effect on metastatic disease progression [2],Effect on microvascular growth [2],Median survival [3] [months],"Progression-free survival, median [3] [months]",Response rate [3] [%]
bevacizumab: recombinant humanized monoclonal IgGl antibody that binds to and inhibits human vascular endothelial growth factor (VEGF),binds to and inhibits the biologic activity of human vascular endothelial growth factor (VEGF),inhibition of metastatic disease progression,reduction of microvascular growth,–,–,–
CCc1c2c(nc3ccc(OC(=O)N4CCC(N5CCCCC5)CC4)cc13)-c1cc3c(c(=O)n1C2)COC(=O)[C@]3(O)CC [irinotecan],–,–,–,~12,4.3,18
O=C1[O][Pt]2([NH][C@@H]3CCCC[C@H]3[NH]2)[O]C1=O [oxaliplatin],–,–,–,~14.5,4.0,12
